Assay results from US20230020092 (published 2023).
{C6NH2} = C6 amino linker (-C6-NH2)

Test: fmoc spps; Rink amide resin (1.0 mmol/g); HATU/DIEA (cyclization)
Conditions: conjugation step, scale 1 mmol, TFA salt

5'-GCT ATT ACC TTA ACC CAG-3' -C6-NH2 (all PMO monomers) (SEQ ID NO: 222) (GCTATTACCTTAACCCAG; all phosphorodiamidate morpholino (PMO), 3' {C6NH2})
final purity method not stated: >99%
